According to publication PMC5779714, “Metallochaperone UreG serves as a new target for design of urease inhibitor: A novel strategy for development of antimicrobials” (PLoS Biology, 2018):
Like-named read-outs stand apart in the source and are kept apart here.

What was measured:
[1] = biological target: T1, UreG (Helicobacter pylori, UniProt Q09066); experiment: Nickel binding of UreG (UV absorption at 337 nm) in presence of compounds; design: species or system H. pylori; conditions: for percentage of Ni(II)-bound UreG: UreG 5 μM
Method: We further investigated whether binding of cmpd4 or cmpd8 to the guanine nucleotide binding pocket perturbed the Ni(II) coordination to the protein. Considering that coordination of Ni(II) to UreG results in a (Cys)→Ni(II) LMCT band centered at about 337 nm, we monitored the UV absorption of UreG samples (5 μM) at 337 nm upon titration of nickel with or without the supplement of cmpd4 or cmpd8. As shown in S19 Fig, cmpd4 at a ratio of [cmpd4]/[UreG] of 5 and 10 reduced the percentages of Ni(II)-bound UreG to ca. 75% and 30%, respectively, and a similar phenomenon was also observed for cmpd8 (S19 Fig), indicative of the disruption of nickel binding property of UreG through targeting nucleotide binding site.
Supplementary file pbio.2003887.s021.png: S19 Fig Effect of cmpd4 and cmpd8 on nickel binding property of UreG. UreG (5 μM) in HEPES buffer (5 μM GTP, 1 mM MgSO4) was titrated with NiSO4 in the presence of cmpd4 or cmpd8 at various concentrations. Titration of nickel ion into UreG samples led to the increasing of absorption at 337 nm, the highest of which was set as 100% for the percentage of Ni-bound UreG. The supplement of cmpd4 and cmpd8 reduced the percentage of Ni-bound UreG. […] (PNG) Click here for additional data file.

[2] = biological target: UreGΔNKXD (Helicobacter pylori, UniProt Q09066, D148A/K146A/N145A); experiment: Fluorescence-quenching titration of mutant UreGΔNKXD; assay type: binding, H. pylori
Method: To further confirm the interface between UreG and small molecules generated from computational models, we then constructed an UreG mutant (UreGΔNKXD) by replacing selected residues (N145, K146, D148) with Ala to disrupt G4 motif, which abolished GTP binding of UreG (S17 Fig).
Using the relation between the emission intensity at 310 nm and molecule-UreG–bound species, as well as one site-binding model, the Kd values were calculated by a logistic regression model referring to a previous report. […] All fluorescence readings were corrected for the dilution effect.

[3] = biological target: H. pylori urease (Helicobacter pylori, UniProt P14916+P69996); experiment: cell-based; assay type: cell-based; conditions: read-out: inhibition of urease activity in H. pylori cells
[4] = biological target: T1, UreG; experiment: biochemical; assay type: binding, H. pylori
[5] = test system: AGS cells with H. pylori infection; experiment: AGS cells with H. pylori infection, inhibitors administrated to the AGS cells (S20 Fig); assay type: cell-based, human; conditions: 10 μM administrated to AGS cells with H. pylori infection
Excerpt: As expected, low viability of AGS with the supplement of cmpd4 and cmpd8 was observed due to the toxicity of small compounds to mammalian cells. […] (PNG) Click here for additional data file.

Chain of UreGΔNKXD (Q09066 whole entry N145A/K146A/D148A): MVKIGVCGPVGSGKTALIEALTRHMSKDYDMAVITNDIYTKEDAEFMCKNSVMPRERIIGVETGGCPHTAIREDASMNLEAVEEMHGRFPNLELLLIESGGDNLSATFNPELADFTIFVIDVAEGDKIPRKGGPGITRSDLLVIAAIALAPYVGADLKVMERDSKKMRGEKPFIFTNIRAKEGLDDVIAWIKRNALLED
T1 sequence (Q09066 whole entry): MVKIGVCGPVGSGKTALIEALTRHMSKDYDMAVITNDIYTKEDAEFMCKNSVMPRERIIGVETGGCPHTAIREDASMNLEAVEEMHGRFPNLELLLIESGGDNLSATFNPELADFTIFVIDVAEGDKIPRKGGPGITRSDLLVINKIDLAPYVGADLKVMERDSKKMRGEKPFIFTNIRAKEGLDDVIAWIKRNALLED
Chain of H. pylori urease (P14916 whole entry, looked up): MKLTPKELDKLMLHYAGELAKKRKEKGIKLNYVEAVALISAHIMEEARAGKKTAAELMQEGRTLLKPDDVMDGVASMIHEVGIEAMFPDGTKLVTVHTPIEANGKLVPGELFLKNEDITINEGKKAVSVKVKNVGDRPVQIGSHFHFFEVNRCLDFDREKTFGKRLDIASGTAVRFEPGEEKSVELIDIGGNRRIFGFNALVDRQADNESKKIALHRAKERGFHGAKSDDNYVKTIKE
Chain of H. pylori urease (P69996 whole entry, looked up): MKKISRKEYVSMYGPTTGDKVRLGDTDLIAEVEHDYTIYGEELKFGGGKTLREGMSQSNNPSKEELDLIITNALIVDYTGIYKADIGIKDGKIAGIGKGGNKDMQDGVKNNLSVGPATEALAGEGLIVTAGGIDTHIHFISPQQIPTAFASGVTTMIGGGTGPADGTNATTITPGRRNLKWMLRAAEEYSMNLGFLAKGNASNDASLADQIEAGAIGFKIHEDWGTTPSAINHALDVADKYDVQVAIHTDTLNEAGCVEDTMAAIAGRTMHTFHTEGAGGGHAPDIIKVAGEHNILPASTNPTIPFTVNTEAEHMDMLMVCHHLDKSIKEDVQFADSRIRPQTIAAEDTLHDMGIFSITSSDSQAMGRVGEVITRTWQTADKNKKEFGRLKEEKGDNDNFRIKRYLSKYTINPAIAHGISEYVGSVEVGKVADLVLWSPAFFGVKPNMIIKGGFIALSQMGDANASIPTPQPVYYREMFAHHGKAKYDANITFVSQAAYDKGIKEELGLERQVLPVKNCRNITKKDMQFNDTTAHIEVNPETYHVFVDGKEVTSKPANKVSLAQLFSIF

Compound: Cc1cccc(N2CCN(C(=O)c3cc(S(=O)(=O)N(C)C)ccc3N3CCCC3)CC2)c1C [cmpd4]
- percentage of Ni(II)-bound UreG ([1]; [cmpd4]/[UreG] of 5): ca. 75%
- percentage of Ni(II)-bound UreG ([1]; [cmpd4]/[UreG] of 10): ~30%
- absorption at 337 nm ([1]; [compound]/[UreG] 5, Ni 0 μM): 5.14E-05
- absorption at 337 nm ([1]; [compound]/[UreG] 5, Ni 1 μM): 0.00539
- absorption at 337 nm ([1]; [compound]/[UreG] 5, Ni 2 μM): 0.00942
- absorption at 337 nm ([1]; [compound]/[UreG] 5, Ni 3 μM): 0.01515
- absorption at 337 nm ([1]; [compound]/[UreG] 5, Ni 4 μM): 0.01614
- absorption at 337 nm ([1]; [compound]/[UreG] 5, Ni 5 μM): 0.01885
- absorption at 337 nm ([1]; [compound]/[UreG] 5, Ni 6 μM): 0.02176
- absorption at 337 nm ([1]; [compound]/[UreG] 5, Ni 7 μM): 0.02335
- absorption at 337 nm ([1]; [compound]/[UreG] 5, Ni 8 μM): 0.02298
- absorption at 337 nm ([1]; [compound]/[UreG] 10, Ni 0 μM): -8.22E-04
- absorption at 337 nm ([1]; [compound]/[UreG] 10, Ni 1 μM): 0.00376
- absorption at 337 nm ([1]; [compound]/[UreG] 10, Ni 2 μM): 0.00766
- absorption at 337 nm ([1]; [compound]/[UreG] 10, Ni 3 μM): 0.00856
- absorption at 337 nm ([1]; [compound]/[UreG] 10, Ni 4 μM): 0.00995
- absorption at 337 nm ([1]; [compound]/[UreG] 10, Ni 5 μM): 0.01042
- absorption at 337 nm ([1]; [compound]/[UreG] 10, Ni 6 μM): 0.01062
- absorption at 337 nm ([1]; [compound]/[UreG] 10, Ni 7 μM): 0.01073
- absorption at 337 nm ([1]; [compound]/[UreG] 10, Ni 8 μM): 0.00864
- Kd [2]: 34.7 µM
- fluorescence intensity (a.u.) ([2]; log(ligand[μM]) 0): 2206 a.u.
- fluorescence intensity (a.u.) ([2]; log(ligand[μM]) 0.30103): 2092 a.u.
- fluorescence intensity (a.u.) ([2]; log(ligand[μM]) 0.60206): 1907 a.u.
- fluorescence intensity (a.u.) ([2]; log(ligand[μM]) 0.90309): 1710.67 a.u.
- fluorescence intensity (a.u.) ([2]; log(ligand[μM]) 1.20412): 1454.33 a.u.
- fluorescence intensity (a.u.) ([2]; log(ligand[μM]) 1.50515): 989.433 a.u.
- fluorescence intensity (a.u.) ([2]; log(ligand[μM]) 1.80618): 540.3 a.u.
- fluorescence intensity (a.u.) ([2]; log(ligand[μM]) 2.10721): 237.1 a.u.
- fluorescence intensity (a.u.) ([2]; log(ligand[μM]) -0.30103): 2278 a.u.
- fluorescence intensity (a.u.) ([2]; log(ligand[μM]) -1.30103): 2063.67 a.u.
- inhibition at 20 µM [3]: ~60%
- Normalized fluo [4]: 0.61
- Normalized fluo ([4]; UreG + compound 50μM, Temperature 30.19): 4.76
- Normalized fluo ([4]; UreG + compound 50μM, Temperature 30.56): 4.12
- Normalized fluo ([4]; UreG + compound 50μM, Temperature 30.94): 3.54
- Normalized fluo ([4]; UreG + compound 50μM, Temperature 31.33): 2.90
- Normalized fluo ([4]; UreG + compound 50μM, Temperature 31.72): 2.50
- Normalized fluo ([4]; UreG + compound 50μM, Temperature 32.09): 2.10
- Normalized fluo ([4]; UreG + compound 50μM, Temperature 32.47): 1.61
- Normalized fluo ([4]; UreG + compound 50μM, Temperature 32.85): 1.32
- Normalized fluo ([4]; UreG + compound 50μM, Temperature 33.30): 0.93
- Normalized fluo ([4]; UreG + compound 50μM, Temperature 33.65): 0.64
- Normalized fluo ([4]; UreG + compound 50μM, Temperature 34.08): 0.41
- Normalized fluo ([4]; UreG + compound 50μM, Temperature 34.47): 0.19
- Normalized fluo ([4]; UreG + compound 50μM, Temperature 34.84): 0.16
- Normalized fluo ([4]; UreG + compound 50μM, Temperature 35.21): 0.06
- Normalized fluo ([4]; UreG + compound 50μM, Temperature 35.58): 3.2e-7
- Normalized fluo ([4]; UreG + compound 50μM, Temperature 35.96): 0.09
- Normalized fluo ([4]; UreG + compound 50μM, Temperature 36.34): 0.11
- Normalized fluo ([4]; UreG + compound 50μM, Temperature 36.71): 0.29
- Normalized fluo ([4]; UreG + compound 50μM, Temperature 37.48): 0.97
- Normalized fluo ([4]; UreG + compound 50μM, Temperature 37.86): 1.58
- Normalized fluo ([4]; UreG + compound 50μM, Temperature 38.23): 2.12
- Normalized fluo ([4]; UreG + compound 50μM, Temperature 38.61): 2.84
- Normalized fluo ([4]; UreG + compound 50μM, Temperature 38.99): 3.60
- Normalized fluo ([4]; UreG + compound 50μM, Temperature 39.38): 4.60
- Normalized fluo ([4]; UreG + compound 50μM, Temperature 39.76): 5.58
- Normalized fluo ([4]; UreG + compound 50μM, Temperature 40.14): 6.65
- Normalized fluo ([4]; UreG + compound 50μM, Temperature 40.52): 7.99
- Normalized fluo ([4]; UreG + compound 50μM, Temperature 40.91): 9.53
- Normalized fluo ([4]; UreG + compound 50μM, Temperature 41.29): 11.09
- Normalized fluo ([4]; UreG + compound 50μM, Temperature 41.66): 12.65
- Normalized fluo ([4]; UreG + compound 50μM, Temperature 42.04): 14.59
- Normalized fluo ([4]; UreG + compound 50μM, Temperature 42.42): 16.59
- Normalized fluo ([4]; UreG + compound 50μM, Temperature 42.81): 18.72
- Normalized fluo ([4]; UreG + compound 50μM, Temperature 43.18): 21.02
- Normalized fluo ([4]; UreG + compound 50μM, Temperature 43.56): 23.41
- Normalized fluo ([4]; UreG + compound 50μM, Temperature 43.94): 25.90
- Normalized fluo ([4]; UreG + compound 50μM, Temperature 44.33): 28.66
- Normalized fluo ([4]; UreG + compound 50μM, Temperature 44.71): 31.01
- Normalized fluo ([4]; UreG + compound 50μM, Temperature 45.09): 34.36
- Normalized fluo ([4]; UreG + compound 50μM, Temperature 45.47): 37.25
- Normalized fluo ([4]; UreG + compound 50μM, Temperature 45.85): 40.25
- Normalized fluo ([4]; UreG + compound 50μM, Temperature 46.23): 43.53
- Normalized fluo ([4]; UreG + compound 50μM, Temperature 46.60): 46.72
- Normalized fluo ([4]; UreG + compound 50μM, Temperature 46.99): 50.00
- Normalized fluo ([4]; UreG + compound 50μM, Temperature 47.37): 53.25
- Normalized fluo ([4]; UreG + compound 50μM, Temperature 47.75): 56.55
- Normalized fluo ([4]; UreG + compound 50μM, Temperature 48.13): 59.79
- Normalized fluo ([4]; UreG + compound 50μM, Temperature 48.52): 62.98
- Normalized fluo ([4]; UreG + compound 50μM, Temperature 48.89): 66.11
- Normalized fluo ([4]; UreG + compound 50μM, Temperature 49.28): 69.46
- Normalized fluo ([4]; UreG + compound 50μM, Temperature 49.65): 72.30
- Normalized fluo ([4]; UreG + compound 50μM, Temperature 50.04): 75.42
- Normalized fluo ([4]; UreG + compound 50μM, Temperature 50.42): 78.05
- Normalized fluo ([4]; UreG + compound 50μM, Temperature 50.80): 80.94
- Normalized fluo ([4]; UreG + compound 50μM, Temperature 51.19): 83.37
- Normalized fluo ([4]; UreG + compound 50μM, Temperature 51.56): 85.74
- Normalized fluo ([4]; UreG + compound 50μM, Temperature 51.96): 88.30
- Normalized fluo ([4]; UreG + compound 50μM, Temperature 52.34): 90.21
- Normalized fluo ([4]; UreG + compound 50μM, Temperature 52.72): 92.02
- Normalized fluo ([4]; UreG + compound 50μM, Temperature 53.10): 93.58
- Normalized fluo ([4]; UreG + compound 50μM, Temperature 53.48): 95.15
- Normalized fluo ([4]; UreG + compound 50μM, Temperature 53.86): 96.31
- Normalized fluo ([4]; UreG + compound 50μM, Temperature 54.24): 97.30
- Normalized fluo ([4]; UreG + compound 50μM, Temperature 54.62): 98.18
- Normalized fluo ([4]; UreG + compound 50μM, Temperature 55.00): 98.87
- Normalized fluo ([4]; UreG + compound 50μM, Temperature 55.38): 99.53
- Normalized fluo ([4]; UreG + compound 50μM, Temperature 55.77): 100.00
- ΔTm at 50 µM ([4]; read-out: thermal shift on the melting temperature of UreG): ~2.5 °C
- Ammonia in medium [5]: 0.3373 mM
- Normalized cell survival (%) [5]: low viability
- Normalized cell survival (%) ([5]; listed as cmp4): 22.5225%
